Assay results from BindingDB's records for doi:10.7270/Q2TB1590 (Nmmlsc, 2007).

Target: T1, fMet-Leu-Phe receptor (Homo sapiens, UniProt P21462)
T1 sequence (P21462 whole entry): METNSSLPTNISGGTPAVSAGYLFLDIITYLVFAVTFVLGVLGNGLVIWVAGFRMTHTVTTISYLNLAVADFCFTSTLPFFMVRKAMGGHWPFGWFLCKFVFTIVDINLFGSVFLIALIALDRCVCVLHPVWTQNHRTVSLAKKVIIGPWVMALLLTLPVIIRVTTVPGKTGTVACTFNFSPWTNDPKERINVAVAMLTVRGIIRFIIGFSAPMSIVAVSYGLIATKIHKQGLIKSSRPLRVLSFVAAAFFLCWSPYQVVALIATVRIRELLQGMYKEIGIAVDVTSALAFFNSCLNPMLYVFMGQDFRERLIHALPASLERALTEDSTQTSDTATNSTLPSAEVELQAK
Test: human FPR1 ligand displacement potency – cell-based, flow cytometry, Ki from IC50, dose response (AID 724)

| Structure (SMILES) | IC50 |
| --- | --- |
| CC(=O)C1C(=O)C(=O)N(CCc2c(C)[nH]c3ccccc23)C1c1cccc(F)c1 (stereo not given) | 17.2 µM |
| COc1ccc(C2C(C(=O)c3cccs3)C(=O)C(=O)N2CCCn2ccnc2)cc1 (stereo not given) [1-(3-imidazol-1-ylpropyl)-2-(4-methoxyphenyl)-4-oxidanyl-3-thiophen-2-ylcarbonyl-2H-pyrrol-5-one] | 7.1 µM |
| COc1ccc(C2C(C(=O)c3cccs3)C(=O)C(=O)N2CCN2CCOCC2)c(OC)c1 (stereo not given) [2-(2,4-dimethoxyphenyl)-1-(2-morpholin-4-ylethyl)-4-oxidanyl-3-thiophen-2-ylcarbonyl-2H-pyrrol-5-one] | 4.4 µM |
| O=C1C(=O)N(CCc2ccccc2)C(c2ccc(Cl)cc2)C1C(=O)c1cccs1 (stereo not given) [2-(4-chlorophenyl)-4-hydroxy-1-(2-phenylethyl)-3-(thiophene-2-carbonyl)-2H-pyrrol-5-one] | 10.6 µM |
| COc1ccc(C2C(C(=O)c3ccco3)C(=O)C(=O)N2CCN2CCOCC2)c(OC)c1 (stereo not given) [5-(2,4-dimethoxyphenyl)-4-(furan-2-carbonyl)-3-hydroxy-1-(2-morpholinoethyl)-1H-pyrrol-2(5H)-one] | 9.8 µM |
| COc1ccc(OC)c(C2C(C(=O)c3ccccc3)C(=O)C(=O)N2c2ccc(C)c(Cl)c2)c1 (stereo not given) [(4E)-1-(3-chloranyl-4-methyl-phenyl)-5-(2,5-dimethoxyphenyl)-4-[oxidanyl(phenyl)methylidene]pyrrolidine-2,3-dione] | 25.7 µM |
| COc1ccc(C2C(C(=O)c3ccccc3)C(=O)C(=O)N2c2cccc(Cl)c2)c(OC)c1 (stereo not given) [(4E)-1-(3-chlorophenyl)-5-(2,4-dimethoxyphenyl)-4-[hydroxy(phenyl)methylene]pyrrolidine-2,3-quinone] | 47.5 µM |
| COCCCN1C(=O)C(=O)C(C(=O)c2ccccc2)C1c1ccc(C(C)C)cc1 (stereo not given) [(4E)-1-(3-methoxypropyl)-4-[oxidanyl(phenyl)methylidene]-5-(4-propan-2-ylphenyl)pyrrolidine-2,3-dione] | 31.1 µM |
| CC(C)c1ccc(C2C(C(=O)c3ccccc3)C(=O)C(=O)N2Cc2cccnc2)cc1 (stereo not given) [(4E)-4-[hydroxy(phenyl)methylene]-5-p-cumenyl-1-(3-pyridylmethyl)pyrrolidine-2,3-quinone] | 50.7 µM |
| COc1ccc(C2C(C(=O)c3ccccc3)C(=O)C(=O)N2CCCn2ccnc2)c(OC)c1 (stereo not given) [(4E)-5-(2,4-dimethoxyphenyl)-1-(3-imidazol-1-ylpropyl)-4-[oxidanyl(phenyl)methylidene]pyrrolidine-2,3-dione] | 5.2 µM |
| COc1ccc(C2C(C(=O)c3ccc(C)cc3)C(=O)C(=O)N2Cc2cccnc2)c(OC)c1 (stereo not given) [(4E)-5-(2,4-dimethoxyphenyl)-4-[(4-methylphenyl)-oxidanyl-methylidene]-1-(pyridin-3-ylmethyl)pyrrolidine-2,3-dione] | 59.7 µM |
| COCCN1C(=O)C(=O)C(C(=O)c2ccccc2)C1c1cc(OC)ccc1OC (stereo not given) [(4E)-5-(2,5-dimethoxyphenyl)-1-(2-methoxyethyl)-4-[oxidanyl(phenyl)methylidene]pyrrolidine-2,3-dione] | 2.8 µM |
| COc1ccc(OC)c(C2C(C(=O)c3ccccc3)C(=O)C(=O)N2c2cccnc2)c1 (stereo not given) [(4E)-5-(2,5-dimethoxyphenyl)-4-[hydroxy(phenyl)methylene]-1-(3-pyridyl)pyrrolidine-2,3-quinone] | 9.2 µM |
| COCCCN1C(=O)C(=O)C(C(=O)c2ccccc2)C1c1ccc(O)c(OC)c1 (stereo not given) [(4E)-5-(3-methoxy-4-oxidanyl-phenyl)-1-(3-methoxypropyl)-4-[oxidanyl(phenyl)methylidene]pyrrolidine-2,3-dione] | 50.5 µM |
| CCCCCCN1C(=O)C(=O)C(C(=O)c2ccccc2)C1c1ccc(O)c(OC)c1 (stereo not given) [(4Z)-1-hexyl-5-(3-methoxy-4-oxidanyl-phenyl)-4-[oxidanyl(phenyl)methylidene]pyrrolidine-2,3-dione] | 7.2 µM |
